This note sets out measurements from patent US6723736B2, “Tricyclic compounds and uses thereof” (Theracos, Inc., priority 2000, dated 2004).

In data set [1] the test system is collagen-induced arthritis in male DBA/1 Lac mice. Nature of the data set: Suppression of collagen-induced arthritis in mice. The format is in vivo. Particulars: 50 mg/kg orally daily for 17 days, compared to vehicle-treated group. The procedure: The ability of compound B to reduce inflammation in an animal model of arthritis was also studied. Arthritis was induced by intradermal administration of collagen (100 μg/mice) in complete adjuvant in male DBA/1 Lac mice 7 weeks old. The booster immunization (100 μg/mice) in incomplete adjuvant was given subcutaneously on day 21. Two days later, when arthritic scores were around 1, animals were divided into two groups. One group received 50 mg/kg dose of compound B orally for 17 days daily. The second group received 10% PEG in water and was used as a vehicle-treated group. Body weight (FIG. 6, panel A), clinical score (FIG. 6, panel B), the number of joints affected (FIG. 6, panel C) and paw thickness (FIG. 6, panel D) were monitored 24 hours after drug administration during the treatment period.

Data set [2] relates to IL-6 production. Briefly: Inhibition of LPS-induced IL-6 production in RAW264.7 cells (ELISA). The format is cell-based, murine. Conditions: RAW264.7, 1-100 μM compound 1 hr pre-incubation, LPS 0.1 μg/ml 6 hr. As to the method:
(§1) The ability of compound B to inhibit IL-6 production was also examined in LPS-stimulated RAW cells. RAW264.7 cells were grown in RPMI-1640 medium containing 3% FBS and pre-incubated for 1 hr at 37° C. with varying concentrations (1, 3, 10, 30 or 100 μM) of compound B. LPS (0.1 μg/ml) was then added, and the cells were further incubated for 6 hr at 37° C. in a 5% carbon dioxide atmosphere. Cell supernatants were then collected, aliquoted, and assayed for IL-6 by ELISA with anti-IL-6 antibody.

For data set [3], the target named is T1, COX-2 (Mus musculus, UniProt Q05769).
T1 construct: examined in LPS-stimulated RAW cells; endogenous in cells; host or cells: RAW264.7 cells, LPS-stimulated (0.1 µg/ml, 6 hr), then lysed
T1 sequence (Q05769 18-604): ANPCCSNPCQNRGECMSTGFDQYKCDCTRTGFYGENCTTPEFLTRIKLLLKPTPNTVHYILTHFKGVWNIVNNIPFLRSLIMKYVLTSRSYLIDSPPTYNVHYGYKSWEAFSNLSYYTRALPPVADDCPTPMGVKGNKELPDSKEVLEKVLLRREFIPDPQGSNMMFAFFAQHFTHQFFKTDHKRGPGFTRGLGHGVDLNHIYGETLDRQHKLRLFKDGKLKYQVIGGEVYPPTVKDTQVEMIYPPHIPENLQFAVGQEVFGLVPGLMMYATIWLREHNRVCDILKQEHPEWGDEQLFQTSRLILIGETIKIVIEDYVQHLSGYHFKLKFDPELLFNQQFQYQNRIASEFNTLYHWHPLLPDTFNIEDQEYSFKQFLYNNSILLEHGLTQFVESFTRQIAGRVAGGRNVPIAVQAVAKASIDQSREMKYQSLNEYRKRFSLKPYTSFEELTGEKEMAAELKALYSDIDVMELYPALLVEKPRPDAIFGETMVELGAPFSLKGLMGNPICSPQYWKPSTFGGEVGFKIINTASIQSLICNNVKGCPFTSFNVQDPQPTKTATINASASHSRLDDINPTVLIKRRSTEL
Briefly: LPS-induced COX-2 activity in RAW264.7 cells (PGE2 EIA). Conditions: RAW264.7, LPS 0.1 μg/ml 6 hr; higher concentrations of compound B (1-100 μM tested); dexamethasone 1 μM. The format is cell-based, murine. As to the method: (§2) In this experiment, the inhibitory effect of compound B was compared to that of dexamethasone, a potent inhibitor of COX-2 expression. RAW264.7 cells were grown in RPMI-1640 medium containing 3% FBS and pre-incubated for 1 hr at 37° C. with compound B (1, 3, 10, 30 or 100 μM), dexamethasone (Dex, 1 μM), or without drug. After 1 hr LPS (0.1 μg/ml) was added, and the cells were further incubated for 6 hr at 37° C. Control cells received neither drug nor LPS. Cells were collected, lysed and assayed for cyclooxygenase activities essentially according to the method of Brideau et al. (Inflamm Res 45:68-74, 1996). COX-2 activity was measured using the Biotrak Prostaglandin E2 (PGE2) EIA Kit, and COX-1 activity was determined using the Biotrak Thromboxane B2 (TXB2) EIA Kit, both from Amersham Pharmacia Biotech (Piscataway, N.J.).

The test system of data set [4] is TNF-alpha production. Briefly: Inhibition of LPS-induced TNF-alpha production in RAW264.7 cells (ELISA). The format is cell-based, murine. Conditions: RAW264.7, 1-100 μM compound 1 hr pre-incubation, LPS 0.1 μg/ml 6 hr. The procedure:
as §1, with “TNF-alpha” for “IL-6”, “was” for “was also”, “a standard in vitro model of inflammation—the murine macrophage-like cell line RAW264.7 stimulated with lipopolysaccharides (LPS).” for “LPS-stimulated RAW cells.”, “anti-TNF-alpha” for “anti-IL-6”
Background: An ELISA detects its analyte on a solid surface through an enzyme-linked reagent.

Data set [5] concerns TNF-alpha induced killing of WEHI-13VAR cells. Briefly: Inhibition of TNF-alpha induced cell killing (MTT viability). The data set is classed as cell-based, mouse. The procedure:
Compounds B and E were tested for their ability to inhibit TNF-alpha induced killing of cultured mouse fibrosarcoma cells. WEHI-13VAR cells were grown in buffered RPMI-1640 medium containing 3% FBS and assayed for TNF-alpha induced cell death as described by Khabar et al. (Immunol Lett 46:107-10, 1995). Cells were co-incubated for 20 hr with 100 pg/ml (FIG. 1A) or 1 pg/ml (FIG. 1B) of TNF-alpha and 100 μg/ml of berberine, compound B or compound E. Controls included cells receiving TNF-alpha but no drug, as well as cells receiving no TNF-alpha and treated with or without NP-40 lysis buffer. Cell viability was assayed using the dye MTT (3-(4,5-dimethylthiozol-2-yl)-2,5-diphenyl tetrazolium bromide) as described.
The dose response was measured for the ability of compound B to inhibit TNF-alpha induced killing of cultured mouse fibrosarcoma cells. In this experiment, the inhibitory action of compound B was compared to that of a chimeric recombinant protein dimer containing soluble TNF receptor fused to the Fc portion of immunoglobulin heavy chain (Mohler KM et al., J Immunol 151:1548-61,1993), a known antagonist of TNF-alpha mediated cell killing. WEHI-13VAR cells were grown in buffered RPMI-1640 medium containing 3% FBS and assayed for TNF-alpha induced cell death as described by Khabar et al. (Immunol Lett 46:107-10, 1995). […]

For data set [6], the target named is T2, COX-1 (Mus musculus, UniProt P22437).
T2 construct: having no effect on the constitutively expressed COX-1 activity; endogenous in cells; host or cells: RAW264.7 cells, then lysed
T2 sequence (P22437 27-602): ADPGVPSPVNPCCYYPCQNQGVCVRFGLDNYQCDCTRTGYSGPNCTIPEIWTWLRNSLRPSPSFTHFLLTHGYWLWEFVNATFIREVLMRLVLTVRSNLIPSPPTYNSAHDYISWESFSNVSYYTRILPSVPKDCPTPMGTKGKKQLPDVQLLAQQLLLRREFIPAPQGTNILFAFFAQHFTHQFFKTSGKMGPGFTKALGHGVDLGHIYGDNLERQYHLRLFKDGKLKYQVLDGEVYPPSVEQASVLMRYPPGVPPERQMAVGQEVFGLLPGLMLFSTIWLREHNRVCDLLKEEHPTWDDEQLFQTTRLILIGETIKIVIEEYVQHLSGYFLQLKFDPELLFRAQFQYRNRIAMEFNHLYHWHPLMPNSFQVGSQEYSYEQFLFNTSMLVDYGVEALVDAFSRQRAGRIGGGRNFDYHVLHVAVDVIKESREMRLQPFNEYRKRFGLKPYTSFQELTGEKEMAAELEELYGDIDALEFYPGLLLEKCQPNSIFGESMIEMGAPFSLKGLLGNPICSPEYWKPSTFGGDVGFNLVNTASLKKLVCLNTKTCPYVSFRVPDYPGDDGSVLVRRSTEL
Briefly: Constitutive COX-1 activity in RAW264.7 cells (TXB2 EIA). The data set is classed as cell-based, murine. Conditions: RAW264.7, LPS 0.1 μg/ml 6 hr; higher concentrations of compound B (1-100 μM tested); dexamethasone 1 μM. As to the method:
as §2

Data set [7] has as its system IL-10 production. Nature of the data set: Inhibition of LPS-induced IL-10 production in human PBMC (ELISA). The data set is classed as cell-based. Conditions: human PBMC, 1, 10, 30 or 100 μM 1 hr preincubation, LPS 1 μg/ml 20 hr. As to the method:
(§3) Human peripheral blood mononuclear cells (PBMC) were purified from human blood using Ficoll-Paque PLUS separation medium (Amersham Pharmacia Biotech) according to the manufacturer's recommended protocol. After centrifugation, the central PBMC layer was collected, washed twice with phosphate buffered saline (PBS) and then plated in a 96-well plate at a density of 2×10^5 cells/well in RPMI-1640 medium containing 10% FBS. The cells were preincubated with dexamethasone (1 μM) or Compound B (1, 10, 30 or 100 μM) for 1 hr and then challenged with LPS (1 μg/ml) for 20 hr. Cells receiving no drug treatment, incubated with or without LPS, served as controls. The cell supernatants were collected, and the amount of IL-10 in each was measured by standard ELISA. […] To confirm that the observed decrease in IL-10 was not due to cytotoxicity, the PBMC were plated in a separate plate, incubated for 20 hr with the same range of doses of Compound B, and the cell viability was assessed by a standard MTS dye exclusion assay (4-hr incubation with MTS).

Data set [8] deals with Human peripheral blood mononuclear cells (PBMC). Nature of the data set: PBMC cell viability (MTS dye exclusion assay). The format is cell-based. Particulars: 20 hr, 1-100 μM. As to the method:
as §3
For orientation: Formazan colour is commonly taken as a measure of viable cells.

Take `COc1ccc(-c2ncc3c(OC)c(OC)ccc3c2O)cc1` [Compound B]: in data set [1], the body weight entry was “No change in body weight”, the clinical score result is “significantly lower clinical scores”, the “number of joints affected” value is recorded as “fewer joints affected” and the paw thickness result was “reduced paw thickness”. In addition, the “inhibition of LPS-induced IL-6 production” value in data set [2] was “up to 60%”. Further, the “effect on inducible COX-2 activity” value in data set [3] was “completely and selectively abrogated”. Besides, the “inhibition of LPS-induced TNF-alpha production” value in data set [4] is listed as about 50%. The “concentration at which the maximal inhibitory effect on TNF-alpha induced cell killing was attained” value in data set [5] (100 pg/ml or 50 pg/ml TNF-alpha, 20 hr, inhibition proportional to dose up to this concentration) was 10 µM. Also, in data set [5] (100 μg/ml compound, 100 pg/ml or 1 pg/ml TNF-alpha, 20 hr co-incubation, relative to untreated or berberine-treated cells), the “inhibition of TNF-alpha induced cell killing (increased cell viability)” value is listed as “inhibited TNF-alpha induced cell killing”. The “effect on constitutively expressed COX-1 activity” value in data set [6] was “no effect”. Moreover, in data set [7], the “inhibition of LPS-induced IL-10 production” value is recorded as “dose-dependent inhibition”. The “loss in cell viability (cytotoxicity)” value in data set [8] is “no significant loss in cell viability”.
